Common to all, as to format: functional
In assay [1] the test system is Streptococcus pneumoniae. Put plainly: Antibacterial activity against Streptococcus pneumoniae 2196 erm B.
In assay [2] the test system is Escherichia coli. The assay can be described thus: Antibacterial activity against Escherichia coli DK3535.
In assay [3] the test system is Escherichia coli. Put plainly: Antibacterial activity against Escherichia coli DK2058G.
Assay [4] concerns Staphylococcus aureus. Put plainly: Antibacterial activity against Staphylococcus aureus UCN18.
For assay [5], the system named is Staphylococcus aureus. The assay can be described thus: Antibacterial activity against Staphylococcus aureus UCN17.
Assay [6] relates to Staphylococcus aureus. Put plainly: Antibacterial activity against Staphylococcus aureus UCN14.
For assay [7], the system named is Staphylococcus aureus. The assay can be described thus: Antibacterial activity against Staphylococcus aureus ATCC 33591.
For assay [8], the system named is Streptococcus pneumoniae. The assay can be described thus: Antibacterial activity against Streptococcus pneumoniae 655 mef A.
Assay [9] concerns Streptococcus pneumoniae. The assay can be described thus: Antibacterial activity against Streptococcus pneumoniae 2634 mef A 2059G.
Another assay deals with Acinetobacter baumannii. The assay can be described thus: Antibacterial activity against Acinetobacter baumannii 2208 ATCC 19606.
The subject of assay [10] is Escherichia coli. Put plainly: Antibacterial activity against Escherichia coli SQ171 2058G.
In assay [11] the test system is Escherichia coli. The assay can be described thus: Antibacterial activity against Escherichia coli SQ171.
Assay [12] deals with Staphylococcus aureus. The assay can be described thus: Antibacterial activity against methicillin-resistant Staphylococcus aureus ATCC 43300.
Another assay has as its system Klebsiella pneumoniae. Put plainly: Antibacterial activity against Klebsiella pneumoniae BAA 2146.
The subject of the next assay is Enterobacter cloacae. Put plainly: Antibacterial activity against Enterobacter cloacae ATCC 13047.
Assay [13] has as its system Staphylococcus aureus. Put plainly: Antibacterial activity against Staphylococcus aureus ATCC 29213.
Assay [14] concerns Escherichia coli. Put plainly: Antibacterial activity against Escherichia coli MG1655.
The subject of the next assay is Enterococcus faecium. Put plainly: Antibacterial activity against Enterococcus faecium NCTC 7171.
The next assay has as its system Pseudomonas aeruginosa. Put plainly: Antibacterial activity against Pseudomonas aeruginosa HER 1018.
Assay [15] has as its system Escherichia coli. Put plainly: Antibacterial activity against Escherichia coli DK.

Structures are written as SMILES. Converted amounts (≈) assume the structure as drawn.

In ChEMBL document CHEMBL5154777, “Alternative approaches utilizing click chemistry to develop next-generation analogs of solithromycin” (2022) one finds MIC data, which are given here for 4 compounds.

Take `CC[C@H]1OC(=O)[C@@](C)(F)C(=O)[C@H](C)[C@@H](OC[C@@H](O)CN2CCOCC2)[C@](C)(OC)C[C@@H](C)C(=O)[C@H](C)C2N(CCCCn3cc(-c4cccc(N)c4)nn3)C(=O)O[C@@]21C` (single isomer, unassigned): the MIC (usually the lowest concentration that inhibits growth of the organism) in the assay with Streptococcus pneumoniae [1] is more than 4.8 µM; against Escherichia coli [2], 4.8 µM (≈ 3.99 µg/mL); against Escherichia coli [3] it was 4.8 µM (≈ 3.99 µg/mL); in the assay with Staphylococcus aureus [4], more than 150 µM; with Staphylococcus aureus [5], more than 150 µM; against Staphylococcus aureus [6], more than 150 µM. The MIC in the assay on Staphylococcus aureus [7] is more than 150 µM; with Streptococcus pneumoniae [8], more than 4.8 µM; with Streptococcus pneumoniae [9], more than 4.8 µM.
For the compound `CC[C@H]1OC(=O)[C@@](C)(F)C(=O)[C@H](C)[C@@H](OC[C@@H](O)CN(C)C)[C@](C)(OC)C[C@@H](C)C(=O)[C@H](C)C2N(CCCCn3cc(-c4cccc(N)c4)nn3)C(=O)O[C@@]21C` (single isomer, unassigned), the MIC in the assay on Streptococcus pneumoniae [1] was more than 5.1 µM; with Escherichia coli [2], more than 41 µM; against Escherichia coli [3] it was more than 41 µM; with Staphylococcus aureus [4], more than 160 µM; against Staphylococcus aureus [5], more than 160 µM; in the assay on Staphylococcus aureus [6], more than 160 µM. Besides, the MIC with Staphylococcus aureus [7] was more than 160 µM; in the assay with Streptococcus pneumoniae [8], 2.5 µM (≈ 1.97 µg/mL); with Streptococcus pneumoniae [9], more than 5.1 µM.
As for `CC[C@H]1OC(=O)[C@@](C)(F)C(=O)[C@H](C)[C@@H](OC[C@@H](O)CN2CCCCC2)[C@](C)(OC)C[C@@H](C)C(=O)[C@H](C)C2N(CCCCn3cc(-c4cccc(N)c4)nn3)C(=O)O[C@@]21C` (single isomer, unassigned), the minimal inhibitory concentration (MIC) was more than 4.8 µM with Streptococcus pneumoniae [1]; 9.6 µM (≈ 7.96 µg/mL) in the assay on Escherichia coli [2]; 4.8 µM (≈ 3.98 µg/mL) against Escherichia coli [3]; more than 150 µM in the assay on Staphylococcus aureus [4]; more than 150 µM in the assay with Staphylococcus aureus [5]; more than 150 µM in the assay with Staphylococcus aureus [6]. Besides, the MIC is more than 150 µM in the assay with Staphylococcus aureus [7], more than 4.8 µM against Streptococcus pneumoniae [8] and more than 4.8 µM in the assay on Streptococcus pneumoniae [9].
`CC[C@H]1OC(=O)[C@@](C)(F)C(=O)[C@H](C)[C@@H](O[C@@H]2O[C@H](C)C[C@H](N(C)C)[C@H]2O)[C@](C)(OC)C[C@@H](C)C(=O)[C@H](C)[C@H]2N(CCCCn3cc(-c4cccc(N)c4)nn3)C(=O)O[C@]12C` [SOLITHROMYCIN]: the MIC in the assay on Streptococcus pneumoniae [1] is 0.59 µM (≈ 0.499 µg/mL); in the assay with Acinetobacter baumannii it was 50 µM (≈ 42.3 µg/mL); against Escherichia coli [10] it was more than 38 µM; in the assay with Escherichia coli [11], more than 38 µM; against Staphylococcus aureus [12] it was more than 200 µM; against Escherichia coli [2] it was 2.4 µM (≈ 2.03 µg/mL). For the same compound, the MIC in the assay with Escherichia coli [3] stood at 4.7 µM (≈ 3.97 µg/mL); with Klebsiella pneumoniae it was 100 µM (≈ 84.5 µg/mL); with Staphylococcus aureus [4], 4.7 µM (≈ 3.97 µg/mL); in the assay with Enterobacter cloacae, 200 µM (≈ 169 µg/mL); with Staphylococcus aureus [13], 0.071 µM (≈ 0.06 µg/mL); with Staphylococcus aureus [5], 4.7 µM (≈ 3.97 µg/mL). In addition, the MIC worked out at 100 µM (≈ 84.5 µg/mL) against Escherichia coli [14]; 9.5 µM (≈ 8.03 µg/mL) in the assay on Staphylococcus aureus [6]; 38 µM (≈ 32.1 µg/mL) with Staphylococcus aureus [7]; 0.2 µM (≈ 0.169 µg/mL) in the assay on Enterococcus faecium; 0.29 µM (≈ 0.245 µg/mL) with Streptococcus pneumoniae [8]; 0.15 µM (≈ 0.127 µg/mL) in the assay with Streptococcus pneumoniae [9]. Besides, the MIC in the assay on Pseudomonas aeruginosa stood at 30 µM (≈ 25.4 µg/mL); against Escherichia coli [15], 2.4 µM (≈ 2.03 µg/mL).
